Results from US20230165970A1, “COMPOSITIONS AND METHODS FOR THE TREATMENT OF BACTERIAL INFECTIONS” (priority 2017, published 2023).
≈ marks a conversion by molar mass, not a printed value. Where two headings read alike, the source gives them in different places. *1 amine or outer side, *2 acyl side, *3 side chain or, on linkers, in order; H or OH if unused. Where a SMILES comes first, the peptide text is derived from it. Bridges are numbered along the chain shown (N, C = ends). Roman numbers before positions name the chains, in order. [ ]: non-standard residue; d: D form. The star is where a group is joined. X4 = C#CCOCCOCCOCCOCCNC(=O)CN(CC(=O)[*:1])CC(=O)[*:2]; Propargyl(OCH2CH2)4CO = C#CCOCCOCCOCCOCCC(=O)*; X1 = CCCCCC[C@@H](O)[C@H](N[*:1])C(=O)[*:2]; dCha = N[C@H](CC1CCCCC1)C(=O)O; Nle = CCCC[C@H](N)C(=O)O; Dab = NCC[C@H](N)C(=O)O; azaGly = NNC(=O)O

Key:
[1] = tested on: Kp 10031; format: cell-based, Klebsiella pneumoniae
Protocol: (§1) Briefly, stock solutions of all antibacterial agents were prepared fresh in appropriate solvents (i.e. PBS, pH 7.4, DMSO, DI, etc.). Stock concentrations for drug conjugates were made at 12.5× the highest final assay concentration. All were serially diluted 2-fold, 8 or 12 times in a 96-well PCR plate (VWR cat. no. 83007-374). Bacterial cell suspensions generated from Mueller-Hinton agar (MHA) plate cultures were prepared in 0.85% saline and adjusted to ˜0.1 OD600 nm. […] For the conjugates, 92 μL of each cell suspension in RPMI B were added in the same 96-well plate assay format. […] Compounds were tested against a 14-strain panel comprised of E. coli (Ec), A. baumannii (Ab), P. aeruginosa (Pa), and K. pneumoniae (Kp) that were obtained from ATCC (Ec 25922, Ec 2489, Ab 19606, Pa 27853, Pa PAO1, Kp 43816, Kp 10031), Centers for Disease Control and Prevention (Ec AR0349), BEI Resources (Ab AB5075), Micromyx LLC (Ab 8990, Kp 6951), and Belgian Coordinated Collections of Microorganisms (Pa LES431) or generated in-house (Ec 25922 64X-1). […] E. coli strain ATCC 25922 and P. aeruginosa strain LES431 were run in the presence and absence of 50% heat-inactivated fetal bovine serum (FBS; Sigma, cat. no. F4135-100 mL). Plates were mixed by shaking then incubated at 35° C. overnight (16-20 h).

[2] = tested on: Kp 6951 (COL^R); format: cell-based, Klebsiella pneumoniae
Protocol: as §1

[3] = tested on: Kp 43816; format: cell-based, Klebsiella pneumoniae
Protocol: as §1

[4] = tested on: A. baumannii AB5075; format: cell-based
Protocol: (§2) Overnight stationary-phase cultures were centrifuged at 3,500×g for 10 min at room temperature and resuspended in 1×PBS to an optical density at 600 nm (OD600) of 0.4 (1×10^8 colony forming units [CFU]/ml) in RPMI with L-glutamine and phenol red (Life Technologies). Bacteria were diluted 1:25 in RPMI ([…]) and 10 ul added to wells of a non-binding 96-well plate (Corning 3641) containing 80 ul of 50% hirudin anti-coagulated blood (complement active) in RPMI. […] MBC was defined as the minimum conjugate concentration required for bacterial clearance (Table 8A and Table 8B). An untreated growth control (40% blood, 0 ug/ml conjugate) was included in all assays as a growth comparator.
(§3) MBC was defined as the minimum compound concentration required for complete bacterial clearance (Table 18).
(§4) In most cases, 2-4 fold improvements in antibacterial activity for the conjugates are observed in the presence of complement active human blood.

[5] = tested on: E. coli ATCC 25922; format: cell-based
Protocol: as §2, §3, §4

[6] = tested on: P. aeruginosa PAO1; format: cell-based
Protocol: as §2, §3, §4

[7] = tested on: Sa RN; format: cell-based
[8] = tested on: Ab 8990 (COL^R); format: cell-based, Acinetobacter baumannii
Protocol: as §1

[9] = tested on: Ab AB5075; format: cell-based, Acinetobacter baumannii; settings: for MIC in RPMI AB 5075: pH 7.4
Protocol: as §1

[10] = tested on: Ec 25922 64X-1 (COL^R); format: cell-based, Escherichia coli; settings: media CA-MHB
Protocol: (§5) Briefly, stock solutions of all antibacterial agents were prepared fresh in appropriate solvents (i.e. PBS, pH 7.4, DMSO, DI, etc.). Stock concentrations for drug conjugates were made at 12.5× the highest final assay concentration. All were serially diluted 2-fold, 8 or 12 times in a 96-well PCR plate (VWR cat. no. 83007-374). Bacterial cell suspensions generated from Mueller-Hinton agar (MHA) plate cultures were prepared in 0.85% saline and adjusted to ˜0.1 OD600 nm. Next, cell suspensions were diluted 1:200 in RPMI containing 5% Luria Broth (LB) to improve bacterial growth (BD Difco, cat. no. 244620) to a concentration of ˜5×10^5 CFU (colony-forming units)/mL. Due to poor solubility in Mueller-Hinton broth media, drug conjugates were evaluated in RPMI 1640 medium (+) L-glutamine, (+) sodium bicarbonate, pH 7.4 (“RPMI B”; Gibco, cat. no. 11875-085) as has been described as a more physiologically-relevant media for susceptibility testing of antibacterial compounds (1). For the conjugates, 92 μL of each cell suspension in RPMI B were added in the same 96-well plate assay format. […] Compounds were tested against a 14-strain panel comprised of E. coli (Ec), A. baumannii (Ab), P. aeruginosa (Pa), and K. pneumoniae (Kp) that were obtained from ATCC (Ec 25922, Ec 2489, Ab 19606, Pa 27853, Pa PAO1, Kp 43816, Kp 10031), Centers for Disease Control and Prevention (Ec AR0349), BEI Resources (Ab AB5075), Micromyx LLC (Ab 8990, Kp 6951), and Belgian Coordinated Collections of Microorganisms (Pa LES431) or generated in-house (Ec 25922 64X-1). […] E. coli strain ATCC 25922 and P. aeruginosa strain LES431 were run in the presence and absence of 50% heat-inactivated fetal bovine serum (FBS; Sigma, cat. no. F4135-100 mL). Plates were mixed by shaking then incubated at 35° C. overnight (16-20 h).

[11] = tested on: Ec AR0349 (mcr-1, COL^R); format: cell-based, Escherichia coli; settings: media CA-MHB
Protocol: as §5

[12] = tested on: Ab 19606 (COLhet^R); format: cell-based, Acinetobacter baumannii; settings: media CA-MHB
Protocol: as §5

[13] = tested on: Pa LES431; format: cell-based, Pseudomonas aeruginosa
Protocol: as §1

[14] = tested on: Pa PAO1; format: cell-based, Pseudomonas aeruginosa; settings: for MIC: PAO1; for MIC in RPMI PA 01: PAO1, pH 7.4
Protocol: as §1

[15] = tested on: Pa 27853; format: cell-based, Pseudomonas aeruginosa
Protocol: as §1

[16] = tested on: Ab AB58705 (COL^R) IpxD, mut. (no LPS); format: cell-based, Acinetobacter baumannii; settings: media CA-MHB
[17] = tested on: Ec 25922; format: cell-based, Escherichia coli; settings: for MIC in RPMI EC 25922: pH 7.4
Protocol: as §1

[18] = tested on: Ec 2469; format: cell-based, Escherichia coli
Protocol: as §1

Row | SMILES | MIC [1] | MIC [2] | MIC [3] | MBC in blood AB 5075 [4] | MBC in blood EC 25922 [5] | MBC in blood PA 01 [6] | MIC [7] | MIC [9] | MIC in RPMI AB 5075 [9] | MIC [10] | MIC [11] | MIC [12] | MIC [13] | MIC [14] | MIC in RPMI PA 01 [14] | MIC [15] | MIC [16] | MIC [17] | MIC in RPMI EC 25922 [17] | MIC [18] | further results
1 | C#CCOCCOCCOCCOCCNC(=O)CN(CC(=O)N[C@@H](CCCC)C(=O)N[C@@H](CCN)C(=O)N[C@H](C(=O)NNC(=O)N[C@H]1CCNC(=O)[C@H]([C@@H](C)O)NC(=O)[C@H](CCN)NC(=O)[C@H](CCN)NC(=O)[C@H](CC(C)C)NC(=O)[C@@H](CC2CCCCC2)NC(=O)[C@H](CCN)NC1=O)[C@H](O)CCCCCC)CC(=O)N[C@@H](CCCC)C(=O)N[C@@H](CCN)C(=O)N[C@H](C(=O)NNC(=O)N[C@H]1CCNC(=O)[C@H]([C@@H](C)O)NC(=O)[C@H](CCN)NC(=O)[C@H](CCN)NC(=O)[C@H](CC(C)C)NC(=O)[C@@H](CC2CCCCC2)NC(=O)[C@H](CCN)NC1=O)[C@H](O)CCCCCC [Int-117] (I: [Nle][Dab][X1][azaGly][Dab][Dab][dCha]L[Dab][Dab]T / II: [Nle][Dab][X1][azaGly][Dab][Dab][dCha]L[Dab][Dab]T; lactam I:5-I:C, II:5-II:C; linker I:N-II:N via X4) | 8 µg/mL (≈ 2.87 µM) | 16 µg/mL (≈ 5.74 µM) | 8 µg/mL (≈ 2.87 µM) | >0.2 µg/mL | >0.2 µg/mL | >0.2 µg/mL | 16 µg/mL (≈ 5.74 µM) | 8 µg/mL (≈ 2.87 µM) | 1.08 µg/mL (≈ 0.387 µM) | 8 µg/mL (≈ 2.87 µM) | 8 µg/mL (≈ 2.87 µM) | 8 µg/mL (≈ 2.87 µM) | 4 µg/mL (≈ 1.43 µM) | 16 µg/mL (≈ 5.74 µM) | 2.16 µg/mL (≈ 0.774 µM) | 8 µg/mL (≈ 2.87 µM) | 8 µg/mL (≈ 2.87 µM) | 8 µg/mL (≈ 2.87 µM) | 1.08 µg/mL (≈ 0.387 µM) | 8 µg/mL (≈ 2.87 µM) | MIC [8]: 8 µg/mL (≈ 2.87 µM)
2 | C#CCOCCOCCOCCOCCC(=O)N[C@@H](CCN)C(=O)N[C@H](C(=O)NNC(=O)N[C@H]1CCNC(=O)[C@H]([C@@H](C)O)NC(=O)[C@H](CCN)NC(=O)[C@H](CCN)NC(=O)[C@H](CC(C)C)NC(=O)[C@@H](CC2CCCCC2)NC(=O)[C@H](CCN)NC1=O)[C@H](O)CCCCCC [Int-115] ({Propargyl(OCH2CH2)4CO}-[Dab][X1][azaGly][Dab][Dab][dCha]L[Dab][Dab]T; lactam 4-C) | 2 µg/mL (≈ 1.49 µM) | 128 µg/mL (≈ 95.5 µM) | 2 µg/mL (≈ 1.49 µM) | 0.05 µg/mL (≈ 0.0373 µM) | 0.05 µg/mL (≈ 0.0373 µM) | >0.2 µg/mL | >128 µg/mL | 2 µg/mL (≈ 1.49 µM) | 1.11 µg/mL (≈ 0.829 µM) | 64 µg/mL (≈ 47.8 µM) | 16 µg/mL (≈ 11.9 µM) | 4 µg/mL (≈ 2.99 µM) | 4 µg/mL (≈ 2.99 µM) | 8 µg/mL (≈ 5.97 µM) | 8.91 µg/mL (≈ 6.65 µM) | 4 µg/mL (≈ 2.99 µM) | 64 µg/mL (≈ 47.8 µM) | 2 µg/mL (≈ 1.49 µM) | 2.23 µg/mL (≈ 1.66 µM) | 2 µg/mL (≈ 1.49 µM) | MIC ([8]; Ab 8990 (COL^R), media CA-MHB): >128 µg/mL
3 | C#CCOCCOCCOCCOCCC(=O)Nc1nc(C)c(C(=O)N[C@@H](CCCC)C(=O)C[C@@H](CCN)C(=O)N[C@H](C(=O)NC(CCCN)C(=O)N[C@H]2CCNC(=O)[C@H]([C@@H](C)O)NC(=O)[C@H](CCN)NC(=O)[C@H](CCN)NC(=O)[C@H](CC(C)C)CC(=O)[C@@H](Cc3ccccc3)NC(=O)[C@H](CCN)CC2=O)[C@@H](C)O)s1 (stereo partly drawn) [Int-125] | 1 µg/mL (≈ 0.637 µM) |  | 1 µg/mL (≈ 0.637 µM) | 0.1 µg/mL (≈ 0.0637 µM) | 0.05 µg/mL (≈ 0.0318 µM) | 0.2 µg/mL (≈ 0.127 µM) | >128 µg/mL | 2 µg/mL (≈ 1.27 µM) | 1.88 µg/mL (≈ 1.2 µM) | 64 µg/mL (≈ 40.8 µM) | 16 µg/mL (≈ 10.2 µM) | 4 µg/mL (≈ 2.55 µM) | 1 µg/mL (≈ 0.637 µM) | 2 µg/mL (≈ 1.27 µM) | 3.76 µg/mL (≈ 2.4 µM) | 2 µg/mL (≈ 1.27 µM) | 32 µg/mL (≈ 20.4 µM) | 1 µg/mL (≈ 0.637 µM) | 0.94 µg/mL (≈ 0.599 µM) | 1 µg/mL (≈ 0.637 µM) | MIC ([2]; Kp 6951 (COL^R), media CA-MHB): >128 µg/mL; MIC ([8]; Ab 8990 (COL^R), media CA-MHB): >128 µg/mL
